Assay: xn = mol fraction of the nth substance listed

O=S1(=O)CCCC1 + CC(C)CO
viscosity [mPa·s], 101 kPa
Conditions	x1 = 0.0598	x1 = 0.1852	x1 = 0.259	x1 = 0.3891	x1 = 0.5066	x1 = 0.5903	x1 = 0.7089	x1 = 0.7888	x1 = 0.9464
303.15 K	2.606	2.541	2.648	2.978	3.416	3.853	4.763	5.677	6.708
308.15 K	2.261	2.222	2.319	2.611	3.017	3.414	4.229	5.037	7.667
313.15 K	1.971	1.954	2.045	2.309	2.681	3.043	3.778	4.493	6.786

O=S1(=O)CCCC1 + C1CCOC1
viscosity [mPa·s], 101 kPa
Conditions	303.15 K	308.15 K	313.15 K	318.15 K	323.15 K
x2 = 0.268	3.74	2.9	3.41	2.93	2.68
x2 = 0.541	1.53	1.46	1.34	1.26	1.18
x2 = 0.772	0.77	0.74	0.72	0.7	0.68

O=C[C@H](O)[C@H](O)[C@H](O)CO + O
298.15 K, 101 kPa
Conditions	viscosity [mPa·s]
x1 = 0.003513	0.95
x1 = 0.01898	1.292

Cc1cccc(C)c1 + C1COCCO1
Conditions	viscosity [mPa·s]
298.15 K, 101 kPa, x2 = 0.7182	1.005

Cc1ccc(O)cc1 + Cc1cccc(O)c1
Conditions	viscosity [mPa·s]
298.15 K, 101 kPa, x2 = 0.1388	14.5
298.15 K, 101 kPa, x2 = 0.2461	14.32
298.15 K, 101 kPa, x2 = 0.3003	14.25
298.15 K, 101 kPa, x2 = 0.452	14
298.15 K, 101 kPa, x2 = 0.4823	13.93
298.15 K, 101 kPa, x2 = 0.5521	13.85
298.15 K, 101 kPa, x2 = 0.6238	13.73
298.15 K, 101 kPa, x2 = 0.6733	13.69
298.15 K, 101 kPa, x2 = 0.7071	13.61
298.15 K, 101 kPa, x2 = 0.7373	13.6
298.15 K, 101 kPa, x2 = 0.8267	13.52
298.15 K, 101 kPa, x2 = 0.9135	13.46
313.15 K, 101.3 kPa, x2 = 0.1	6.798
313.15 K, 101.3 kPa, x2 = 0.2	6.861
313.15 K, 101.3 kPa, x2 = 0.3	6.878
313.15 K, 101.3 kPa, x2 = 0.4	6.855
313.15 K, 101.3 kPa, x2 = 0.5	6.75
313.15 K, 101.3 kPa, x2 = 0.6	6.625
313.15 K, 101.3 kPa, x2 = 0.7	6.547
313.15 K, 101.3 kPa, x2 = 0.8	6.409
313.15 K, 101.3 kPa, x2 = 0.9	6.321
323.15 K, 101.3 kPa, x2 = 0.1	4.564
323.15 K, 101.3 kPa, x2 = 0.2	4.653
323.15 K, 101.3 kPa, x2 = 0.3	4.653
323.15 K, 101.3 kPa, x2 = 0.4	4.618
323.15 K, 101.3 kPa, x2 = 0.5	4.54
323.15 K, 101.3 kPa, x2 = 0.6	4.439
323.15 K, 101.3 kPa, x2 = 0.7	4.337
323.15 K, 101.3 kPa, x2 = 0.8	4.246
323.15 K, 101.3 kPa, x2 = 0.9	4.175

Cc1ccc(O)cc1 + Cc1ccccc1
308.15 K, 101 kPa
Conditions	viscosity [mPa·s]
x1 = 0.0324	0.5202
x1 = 0.0983	0.5823
x1 = 0.2079	0.7295
x1 = 0.305	0.9088
x1 = 0.417	1.201
x1 = 0.58	1.867
x1 = 0.6813	2.636
x1 = 0.7299	3.2
x1 = 0.8385	4.646
x1 = 0.8532	5.08
x1 = 0.9349	6.873
